Values joined by “and” are separate entries in the source; they are usually repeats but may differ in a detail not shown here. Identical values can stand only once.
Test system: 324938-238-R-J1-PDC complex spheroids viability
Experiment: Anticancer human tumor 324938-238-R-J1-PDC patient-derived bladder carcinoma cell line growth inhibition [CLK]
Conditions: for viability, T/C: stronger effect = lower value
Text: A high-throughput screen of multi-cell type tumor spheroids was designed to identify active combinations of […] and targeted small molecules. Complex spheroids include a stromal component modeled by human endothelial cells (HUVEC) and fibroblasts modeled by human mesenchymal stem cells (MSCs). The concentration ranges selected for each drug and investigational agent were based upon clinically achievable concentrations if the clinical Cmax of the agent was known.
Compounds. The drugs and investigational agents: cirtuvivint (SM08502; NSC835563), CC-671 (NSC850746), vemurafenib (NSC761431), tapotoclax (NSC804041), sotorasib (NSC818433), adagrasib (NSC831453), MRTX-1133 (NSC836407), BAY2416964 (NSC825713), copanlisib (NSC816437), inavolisib (NSC800729), abemaciclib (NSC768073), osimertinib (NSC779217), entinostat (NSC756642), eltanexor (KPT-8602, NSC794443), venetoclax (NSC766270), ceralasertib (NSC777638), bortezomib (NSC756655), olaparib (NSC753686), talazoparib (NSC767125), alisertib (NSC759677), peposertib (NSC802822), gemcitabine (NSC613327), 5-fluorouracil (NSC19893), SN-38 (NSC673596), oxaliplatin (NSC266046), paclitaxel (NSC125973), and doxorubicin (NSC123127), were obtained from the National Cancer Institute (NCI) Developmental Therapeutics Program Chemical Repository. The FDA-approved anticancer drug set is available from the Developmental Therapeutics Program at https://dtp.cancer.gov/organization/dscb/obtaining/available plates.htm. […] The stock solutions were prepared in dimethyl sulfoxide (DMSO, Sigma-Aldrich, St. Louis, MO, cat. D2650), except for the platinum complexes which were prepared in saline (Quality Biological, Gaithersburg, MD, cat. 114-055-101), at 800-fold the tested concentration and stored at -70 degrees C prior to their use. All drugs and investigational agents were tested over a range starting from a high concentration at or near the clinical Cmax and decreasing in half-log increments. If the clinical Cmax for an agent had not been determined, the highest concentration tested was 10 microM.
Cell Culture. All cells were maintained in an incubator at 37 degrees C and 5% CO2 with 95% humidity. The PDC lines were cultured according to standard operating procedures established by the NCI PDMR. Briefly, all PDCs were thawed and cultured in Matrigel-coated flasks prepared with a working solution of 1X Ham's F-12 nutrient mix, without supplementation (Invitrogen, Waltham, MA, cat. 11765054), 100 U/mL penicillin-streptomycin (Invitrogen, cat. 15140122), and 2.5% Matrigel (Corning Inc., Corning, NY, cat. 354248) for the first three passages. The 947758-054-R-J2-PDC line was cultured in 6B/Colon 1A media, which includes advanced DMEM/F-12 (Thermo Fisher Scientific, cat. 12634028), 10 mM HEPES (Thermo Fisher Scientific, cat. 15630080), 1X GlutaMAX supplement (Thermo Fisher Scientific, cat. 35050061), 0.1 mg/mL primocin (InvivoGen, cat. ant-pm-2), 10% defined fetal bovine serum, heat inactivated (HyClone Laboratories Inc., cat. SH30070.03HI), 1.25 mM N-Acetyl-L-cysteine (Sigma-Aldrich, cat. A9165), 10 mM nicotinamide (Sigma-Aldrich, cat. N0636), 1X B-27 supplement (Thermo Fisher Scientific, cat. 17504044), 1X N-2 supplement (Thermo Fisher Scientific, cat. 17502048), and 10 microM Y-27632 dihydrochloride (Tocris Bioscience, cat. 1254). The 876862-298-R-J1-PDC was cultured in 6E media, which includes all 6B/Colon 1A media components plus 50% L-WRN conditioned media (ATCC, cat. CRL-3276), 50 ng/mL recombinant human EGF recombinant protein (hEGF; Thermo Fisher Scientific, cat. PHG0311), 10 ng/mL recombinant human fibroblast growth factor 10 (hGFG-10; PeproTech, cat. 100-26), 1 ng/mL recombinant human fibroblast growth factor 2 (hFGF-2; PeproTech, cat. 100-18B), and 1 µM prostaglandin E2 (PGE2; Tocris, cat. 2296). The 227483-062-R1-J1-PDC line was cultured in Panc media, containing all 6E components except hFGF-2, with the addition of 500 nM SB-431542 (Selleckchem, cat. S1067) and 10 nM gastrin (Tocris, cat. 3006). […]

[1] = curve of first compound, second compound 0.0316 µM
[2] = curve of first compound, second compound 0.1 µM
[3] = curve of first compound, second compound 0.316 µM
[4] = curve of first compound, second compound 1 µM
[5] = curve of first compound, second compound 3.16 µM
[6] = curve of first compound, second compound 10 µM
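Note: viability read after seven days of drug exposure.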
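Throughout, for viability, T/C: 100% = DMSO vehicle control wells.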

SMILES: Nc1ccn(C2OC(CO)C(O)C2(F)F)c(=O)n1 (stereo not drawn) + CNC(=O)c1ccc(Nc2nc(OC3CCCC3)c3c(-c4ccc5nc(C)oc5c4)c[nH]c3n2)c(OC)c1
- IC50 [1]: < 31.6 nM
- IC50 [2]: < 31.6 nM
- IC50 [3]: < 31.6 nM
- IC50 [4]: < 31.6 nM
- IC50 [5]: < 31.6 nM
- IC50 [6]: < 31.6 nM
- viability, T/C (second compound 0.0316 µM, first compound 0.0316 µM): 38.6%
- viability, T/C (second compound 0.0316 µM, first compound 0.1 µM): 16.4%
- viability, T/C (second compound 0.0316 µM, first compound 0.316 µM): 15.2%
- viability, T/C (second compound 0.0316 µM, first compound 1 µM): 14%
- viability, T/C (second compound 0.0316 µM, first compound 3.16 µM): 10.6%
- viability, T/C (second compound 0.0316 µM, first compound 10 µM): 8.72%
- viability, T/C (second compound 0.1 µM, first compound 0.0316 µM): 23%
- viability, T/C (second compound 0.1 µM, first compound 0.1 µM): 18.8%
- viability, T/C (second compound 0.1 µM, first compound 0.316 µM): 12.8%
- viability, T/C (second compound 0.1 µM, first compound 1 µM): 14.2%
- viability, T/C (second compound 0.1 µM, first compound 3.16 µM): 10.3%
- viability, T/C (second compound 0.1 µM, first compound 10 µM): 7.12%
- viability, T/C (second compound 0.316 µM, first compound 0.0316 µM): 17.1%
- viability, T/C (second compound 0.316 µM, first compound 0.1 µM): 14.8%
- viability, T/C (second compound 0.316 µM, first compound 0.316 µM): 12.3%
- viability, T/C (second compound 0.316 µM, first compound 1 µM): 12.5%
- viability, T/C (second compound 0.316 µM, first compound 3.16 µM): 8.68%
- viability, T/C (second compound 0.316 µM, first compound 10 µM): 7.82%
- viability, T/C (second compound 1 µM, first compound 0.0316 µM): 15%
- viability, T/C (second compound 1 µM, first compound 0.1 µM): 15.4%
- viability, T/C (second compound 1 µM, first compound 0.316 µM): 12.2%
- viability, T/C (second compound 1 µM, first compound 1 µM): 11.6%
- viability, T/C (second compound 1 µM, first compound 3.16 µM): 9.63%
- viability, T/C (second compound 1 µM, first compound 10 µM): 8.24%
- viability, T/C (second compound 3.16 µM, first compound 0.0316 µM): 17.1%
- viability, T/C (second compound 3.16 µM, first compound 0.1 µM): 13.7%
- viability, T/C (second compound 3.16 µM, first compound 0.316 µM): 13%
- viability, T/C (second compound 3.16 µM, first compound 1 µM): 12%
- viability, T/C (second compound 3.16 µM, first compound 3.16 µM): 8.99%
- viability, T/C (second compound 3.16 µM, first compound 10 µM): 9.03%
- viability, T/C (second compound 10 µM, first compound 0.0316 µM): 18%
- viability, T/C (second compound 10 µM, first compound 0.1 µM): 12.9%
- viability, T/C (second compound 10 µM, first compound 0.316 µM): 14.3%
- viability, T/C (second compound 10 µM, first compound 1 µM): 12.1%
- viability, T/C (second compound 10 µM, first compound 3.16 µM): 13.4%
- viability, T/C (second compound 10 µM, first compound 10 µM): 8.05%

SMILES: C#Cc1c(F)ccc2cc(O)cc(-c3ncc4c(N5CC6CCC(C5)N6)nc(OCC56CCCN5CC(F)C6)nc4c3F)c12 (stereo not drawn)
- viability, T/C (compound 0.0316 µM): 80% and 86.4%
- viability, T/C (compound 0.1 µM): 69.2% and 79.7%
- viability, T/C (compound 0.316 µM): 56.7% and 70%
- viability, T/C (compound 1 µM): 64.9% and 53.9%
- viability, T/C (compound 3.16 µM): 48.4% and 41.9%
- viability, T/C (compound 10 µM): 41.9% and 38%
- IC50 (curve of compound): 2920 nM and 1470 nM

SMILES: COc1c(OCCCN2CCOCC2)ccc2c3n(c(=NC(=O)c4cnc(N)nc4)nc12)CCN3
- viability, T/C (compound 0.00316 µM): 64.9% and 69.6%
- viability, T/C (compound 0.01 µM): 49.7% and 52.5%
- viability, T/C (compound 0.0316 µM): 30.7% and 33.4%
- viability, T/C (compound 0.1 µM): 15.3% and 19%
- viability, T/C (compound 0.316 µM): 4.22% and 7.44%
- viability, T/C (compound 1 µM): 0.44% and 1.03%
- IC50 (curve of compound): 9.79 nM and 11.5 nM

SMILES: C=CC(=O)Nc1cc(Nc2nccc(-c3cn(C)c4ccccc34)n2)c(OC)cc1N(C)CCN(C)C + CN1CCN(c2cc(C(=O)Nc3cc4cc(-c5cnn(C)c5)ccc4cn3)ccn2)CC1
- IC50 [1]: 69.5 nM
- IC50 [2]: 6.25 nM
- IC50 [3]: < 0.949 nM
- IC50 [4]: < 0.949 nM
- IC50 [5]: < 0.949 nM
- IC50 [6]: < 0.949 nM
- viability, T/C (second compound 0.0316 µM, first compound 0.000949 µM): 80%
- viability, T/C (second compound 0.0316 µM, first compound 0.003 µM): 77.5%
- viability, T/C (second compound 0.0316 µM, first compound 0.00949 µM): 69.7%
- viability, T/C (second compound 0.0316 µM, first compound 0.03 µM): 66.3%
- viability, T/C (second compound 0.0316 µM, first compound 0.0949 µM): 43.7%
- viability, T/C (second compound 0.0316 µM, first compound 0.3 µM): 25.3%
- viability, T/C (second compound 0.1 µM, first compound 0.000949 µM): 60.3%
- viability, T/C (second compound 0.1 µM, first compound 0.003 µM): 48.5%
- viability, T/C (second compound 0.1 µM, first compound 0.00949 µM): 51%
- viability, T/C (second compound 0.1 µM, first compound 0.03 µM): 39%
- viability, T/C (second compound 0.1 µM, first compound 0.0949 µM): 33%
- viability, T/C (second compound 0.1 µM, first compound 0.3 µM): 19.1%
- viability, T/C (second compound 0.316 µM, first compound 0.000949 µM): 19.7%
- viability, T/C (second compound 0.316 µM, first compound 0.003 µM): 22.8%
- viability, T/C (second compound 0.316 µM, first compound 0.00949 µM): 20.9%
- viability, T/C (second compound 0.316 µM, first compound 0.03 µM): 21.8%
- viability, T/C (second compound 0.316 µM, first compound 0.0949 µM): 17.1%
- viability, T/C (second compound 0.316 µM, first compound 0.3 µM): 15.7%
- viability, T/C (second compound 1 µM, first compound 0.000949 µM): 1.22%
- viability, T/C (second compound 1 µM, first compound 0.003 µM): 1.22%
- viability, T/C (second compound 1 µM, first compound 0.00949 µM): 1.43%
- viability, T/C (second compound 1 µM, first compound 0.03 µM): 1.11%
- viability, T/C (second compound 1 µM, first compound 0.0949 µM): 1.21%
- viability, T/C (second compound 1 µM, first compound 0.3 µM): 0.28%
- viability, T/C (second compound 3.16 µM, first compound 0.000949 µM): 0.13%
- viability, T/C (second compound 3.16 µM, first compound 0.003 µM): 0.13%
- viability, T/C (second compound 3.16 µM, first compound 0.00949 µM): 0.19%
- viability, T/C (second compound 3.16 µM, first compound 0.03 µM): 0.14%
- viability, T/C (second compound 3.16 µM, first compound 0.0949 µM): 0.11%
- viability, T/C (second compound 3.16 µM, first compound 0.3 µM): 0.16%
- viability, T/C (second compound 10 µM, first compound 0.000949 µM): 0.15%
- viability, T/C (second compound 10 µM, first compound 0.003 µM): 0.16%
- viability, T/C (second compound 10 µM, first compound 0.00949 µM): 0.21%
- viability, T/C (second compound 10 µM, first compound 0.03 µM): 0.16%
- viability, T/C (second compound 10 µM, first compound 0.0949 µM): 0.18%
- viability, T/C (second compound 10 µM, first compound 0.3 µM): 0.21%
